Measurements as given in US20230157994A1 (priority 2020, published 2023).
“And” between values parts separate entries of the source, which are not always exact repeats. Equal values may be shown once. Read-outs that look alike come from different tables or passages of the source.

Tests used:
ARDS patients = settings: at days 28; cited from earlier work
Citrullinated histone H3 = settings: for effect on level of citrullinated histone H3 / NETosis: RNA virus infected mice, 3 mg/kg/day, versus infected vehicle group
severe COVID-19 patients = settings: estimate for sample size
Source text: Sample size is based on the following assumptions: • 1. Current estimate of the proportion of patients in ICU with critical stage COVID-19 and requiring mechanical ventilation (50% as per Bichat and Bordeaux CHUs), • 2. […] A two-sided analysis, with α=0.05.

[1] = tested on: neutrophils (DAPI-CD16+, DAPI-CD16+CXCR4-, DAPI-CD16+CXCR4+); settings: for % of neutrophils' migration decrease with plerixafor vs vehicle in response to COVID-19 serum: DAPI-CD16+CXCR4+ cells
Procedure: Neutrophils were isolated from 6 patients of the COBRA cohort (COPD and asthma patient cohort). […] Cells were next plated in the upper compartment of a modified Boyden chamber for migration assay in 0.2 mL HBSS, containing 0.5% HSA medium. HBSS, 0.5% HSA or HBSS, 0.5% HSA+sera (10% diluted) from severe COVID-19 patients were added to the bottom compartment of each well. […] Cell identities and counts were analysed by FACS method.
Neutrophils are isolated according to the method described by Hard, et al., (Infiltrated neutrophils acquire novel chemokine receptor expression and chemokine responsiveness in chronic inflammatory lung diseases. J. Immunol. Baltim. Md 1950. 181:8053-8067). Neutrophils were freshly isolated from blood of COPD patients over isotonic Percoll density gradient. The neutrophils were recovered, washed twice with HBSS containing 20 mM HEPES and 0.1% (w/v) BSA and resuspended in HBSS, 20 mM HEPES, and 0.1% (w/v) BSA at a cell concentration of 5×10^5 in 0.2 mL.
Neutrophil migration was assessed using a Boyden chamber assay, using transwell inserts (pore size 8 um). A total of 5x 10^5 neutrophils cells in 0.2 mL HBSS, containing 0.5% HSA were added to the upper compartment of each well. […] HBSS, 0.5% HSA and Sera (10% diluted) from severe COVID-19 patients was added to the bottom compartment of each well.
After neutrophils' recovery from lower chamber, FACS tubes were centrifuged 5 min, 4° C. at 500 g. Fixation and permeabilization of cells were as follow: 0.3 mL of Cytofix/Cytoperm were added for 15 min (tube are protected from light). Next, 400 μL of permeabilization buffer was added and cells were processed for centrifugation for 5 min, 4° C., 400 g. Supernatant was discarded, and cells were processed for antibody staining. Cells were incubated 40 min at 4° C. with anti-CD16 to account for all neutrophils, anti-CXCR4 to specifically account for CXCR4 expressing neutrophils. Next, 400 μL of permeabilization buffer was added, and cells were centrifuged 5 min at 4° C., 400 g. After supernatant was discarded, cells were incubated with appropriate secondary antibody for 40 min at 4° C. Finally, cells were incubated with DAPI at 4° C. After DAPI incubation (to exclude dying cells from FACS counts), 400 μL of PBS 1× were added and cells were centrifuged for 5 min at 4° C., 400 g. Cells were resuspended in 300 μL of PBS 1×. To obtain absolute values of migratory cells, flow cytometric counts for each condition were obtained during a constant predetermined time period (1 min).
Each condition treatment was run in duplicate.

[2] = tested on: COVID-19-related ARDS patients; settings: hypothesis; in combination with best available treatment
Procedure: Ventilator-free days (VFDs) at 28 days are one of several organ failure-free outcome measures to quantify the efficacy of therapies and interventions. VFDs are typically defined as follows: • a. VFDs=0 if subject dies within 28 days of mechanical ventilation. • b. VFDs=28−x if successfully liberated from ventilation x days after initiation. • c. VFDs=0 if the subject is mechanically ventilated for >28 days.
4 groups of patients (placebo, pleri 10, pleri 20, pleri 40 μg/kg bid) will be planned.

SARS-CoV-2 = settings: for body weight loss kinetic: versus vehicle mice

Compound: Tocilizumab: an anti-IL6 human monoclonal antibody marketed by Genentech under the tradename Actemra for treating rheumatoid arthritis
- VFDs (ventilator-free days) (ARDS patients): 14.86+/−5.36

Compound: c1cc(CN2CCCNCCNCCCNCC2)ccc1CN1CCCNCCNCCCNCC1 [plerixafor]
- effect on level of citrullinated histone H3 / NETosis (Citrullinated histone H3): significantly reduced
- effect on level of citrullinated histone H3 / NETosis (Citrullinated histone H3; listed as Plerixafor): slightly decreased
- Mean Citrullinated Histone H3 in plasma (Citrullinated histone H3; day 7, RNA virus infected, 3 mg/kg/day SC, infected vehicle 2.124, non infected 0.113): 1.428±0.799 absorbance at 450 nm and 1.428 absorbance at 450 nm
- decrease of proportion of invasive mechanical ventilation versus placebo (severe COVID-19 patients): 46%
- proportion of invasive mechanical ventilation in patients with severe COVID-19 (severe COVID-19 patients; reduced from 50%, 30 μg/kg/hour continuous IV 7 days): 27%
- decrease of CXCR4+ neutrophils migration (mean of 6 patients) [1]: 75.8%±5.9%
- migration of CXCR4 negative neutrophils (DAPI-CD16+CXCR4-) [1]: no significant effect
- migration of CXCR4 positive neutrophils (DAPI-CD16+CXCR4+) [1]: strongly and reproducibly decreased
- serum-induced recruitment of neutrophils total population (DAPI-CD16+) [1]: did not significantly reduce
- % of neutrophils' migration decrease with plerixafor vs vehicle in response to COVID-19 serum ([1]; patient Sg3, 25 μg/mL): 86.6%
- % of neutrophils' migration decrease with plerixafor vs vehicle in response to COVID-19 serum ([1]; patient Sg87, 25 μg/mL): 72.9%
- % of neutrophils' migration decrease with plerixafor vs vehicle in response to COVID-19 serum ([1]; patient Sg88, 25 μg/mL): 75.5%
- % of neutrophils' migration decrease with plerixafor vs vehicle in response to COVID-19 serum ([1]; patient Sg89, 25 μg/mL): 70.0%
- % of neutrophils' migration decrease with plerixafor vs vehicle in response to COVID-19 serum ([1]; patient Sg92, 25 μg/mL): 77.6%
- % of neutrophils' migration decrease with plerixafor vs vehicle in response to COVID-19 serum ([1]; patient Sg95, 25 μg/mL): 72.4%
- increase of VFDs (ventilator-free days at 28 days) [2]: 2 days
- body weight loss kinetic (SARS-CoV-2; 10 mg/kg/day): reduced the mice body weight loss kinetic
- body weight loss kinetic (SARS-CoV-2; 10 mg/kg/day, listed as Plerixafor): significant reduction of body weight loss kinetic
- time of death (euthanasia at body weight loss superior to 20%) (SARS-CoV-2; 10 mg/kg/day, versus vehicle, Wilcoxon test p<0.05): Significant difference in time of death
- average body weight loss (SARS-CoV-2; day 5 post infection, 10 mg/kg/day twice daily, vehicle 20.43%±2.88%): 17.6%±1.28%
- fraction of treated mice with improved survival (SARS-CoV-2; lethal dose of SARS-CoV-2): 44,44%
- improvement of survival (SARS-CoV-2; lethal dose of SARS-CoV-2, versus vehicle): 20%
